Holding throughout (type): cell-based
Assay [1] relates to Trypanosoma cruzi amastigotes cultured in 3T3 fibroblast cells. In words: Assay for growth inhibition of kinetoplastid parasite Trypanosoma cruzi (beta-galactosidase Tulahuen strain, CPRG readout). The settings on record: Trypanosoma cruzi, Fibroblast, T. cruzi amastigotes in 3T3 fibroblast cells; read-out: Buckner infectious T. cruzi EC50. The procedure, abridged:
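3T3 fibroblasts (1,000 cells/well) plated overnight, treated with compound in DMSO, then infected with 10,000 Lac-Z-expressing Tulahuen trypomastigotes. After 6 days, 0.6 mM CPRG with 0.6% NP-40 added for 2 h at room temperature; absorbance gives relative intracellular amastigote numbers. Benznidazole and nifurtimox serve as positive controls.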

Assay [2] relates to Trypanosoma brucei brucei (Lister 427) strain. The experiment in a line: Assay for growth inhibition against Trypanosoma brucei brucei (Cell TiterGlo ATP luminescence). The settings on record: Trypanosoma brucei, T. brucei brucei (Lister 427); read-out: T. Brucei (HAT) EC50. The procedure, abridged: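 Growth read-out is cellular ATP by CellTiter-Glo luminescence, measured 30 min after reagent addition, following 2-day incubation at 37 °C in CO2. Parasites (10,000/mL, HMI-9 plus 10% FBS and 10% serum plus) faced 10 threefold dilutions in duplicate; IC50 taken as 50% growth inhibition versus untreated.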
On the technique in general: Cellular ATP, detected with luciferase, serves as a proxy for viable cell number.

The test system of assay [3] is Leishmania donovani axenic amastigote. The experiment in a line: In vitro assay for growth inhibition of Leishmania donovani axenic amastigote (Cell TiterGlo luminescence). The conditions noted are these: Leishmania donovani, L. donovani axenic amastigotes in vitro; read-out: L. donovani amastigotes EC50. The procedure, abridged:
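Compound-treated wells received 9600 axenic amastigotes in RPMI 1640-based medium at pH 5.5 (37 °C, 5% CO2). Growth measured as ATP luminescence (CellTiter-Glo) after 2-day incubation; DMSO and reference compounds served as controls.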

Assay [4] deals with L. donovani HU3 strain in mouse peritoneal macrophages. In words: Assay for inhibition of parasitemia of Leishmania donovani in mouse macrophages (SYBR Green nuclei count, high-content imaging). The conditions noted are these: Leishmania donovani, Peritoneal macrophage, L. donovani in mouse peritoneal macrophages; read-out: L. donovani in Mouse Macrophages EC50. The procedure, abridged:
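Parasite numbers were counted from SYBR Green-stained nuclei imaged by high-content microscopy after paraformaldehyde fixation and Triton permeabilization. Before this, compound was applied for 5 days at 37° C to BALB/c peritoneal macrophages (2×10^4/well) that had been exposed 24 h to 4×10^5 L. donovani HU3 amastigotes harvested from infected mouse spleens.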

What is called pEC50 is the EC50 on a negative log10 scale, so that one unit is a factor of ten.

pEC50: −log10 of the molar value.

Consider `CC(C)c1cnc2nn(-c3cc(NC(=O)c4cnc(C5CC5)o4)ccc3F)cc2c1` [Compound 75, 2-cyclopropyl-N-{4-fluoro-3-[5-(propan-2-yl)-2H-pyrazolo[3,4-b]pyridin-2-yl]phenyl}-1,3-oxazole-5-carboxamide], for which the pEC50 was 6.92 in assay [1], 6.77 in assay [2], 6.70 in assay [3] and 6.77 in assay [4].

For `Cc1nc(C2CC2)oc1C(=O)Nc1ccc(F)c(-n2cc3cc(C(C)C)cnc3n2)c1` [Compound 76, 2-cyclopropyl-N-{4-fluoro-3-[5-(propan-2-yl)-2H-pyrazolo[3,4-b]pyridin-2-yl]phenyl}-4-methyl-1,3-oxazole-5-carboxamide], the pEC50 in assay [1] is 6.39; in assay [2], 6.32; in assay [3], 5.96; in assay [4], 6.03.

`Cc1nc(C(F)(F)F)oc1C(=O)Nc1ccc(F)c(-n2cc3cc(C(C)C)cnc3n2)c1` [Compound 78, N{4-fluoro-3-[5-(propan-2-yl)-2H-pyrazolo[3,4-b]pyridin-2-yl]phenyl}-4-methyl-2-(trifluoromethyl)-1,3-oxazole-5-carboxamide]: the pEC50 in assay [1] was 6.35; in assay [2], 6.28; in assay [3], 6.10; in assay [4], 6.06.

Take `Cc1nc(COC(C)(C)C)oc1C(=O)Nc1ccc(F)c(-n2cc3cc(C(C)C)cnc3n2)c1` [Compound 79, 2-[(tert-butoxy)methyl]-N-{4-fluoro-3-[5-(propan-2-yl)-2H-pyrazolo[3,4-b]pyridin-2-yl]phenyl}-4-methyl-1,3-oxazole-5-carboxamide]: the pEC50 in assay [1] is 6.85; in assay [2], 6.46; in assay [3], 5.52; in assay [4] it was 5.62.

On to `CC(C)c1cnc2nn(-c3cc(NC(=O)C4CCCCO4)ccc3F)cc2c1` (stereo not shown) [Compound 80, N-{4-fluoro-3-[5-(propan-2-yl)-2H-pyrazolo[3,4-b]pyridin-2-yl]phenyl}oxane-2-carboxamide], for which the pEC50 in assay [1] was 7.04; in assay [2], 6.77; in assay [3] it was 6.39; in assay [4], 6.39.

On to `Cc1nc(C(=O)Nc2ccc(F)c(-n3cc4cc(C(C)C)cnc4n3)c2)oc1C` [Compound 81, N-{4-fluoro-3-[5-(propan-2-yl)-2H-pyrazolo[3,4-b]pyridin-2-yl]phenyl}-4,5-dimethyl-1,3-oxazole-2-carboxamide], for which the pEC50 was 6.38 in assay [1], 6.44 in assay [2], 5.50 in assay [3] and 5.44 in assay [4].

Turning to `CC(C)c1cnc2nn(-c3cc(NC(=O)c4ccccn4)ccc3F)cc2c1` [Compound 82, N-{4-fluoro-3-[5-(propan-2-yl)-2H-pyrazolo[3,4-b]pyridin-2-yl]phenyl}pyridine-2-carboxamide], the pEC50 in assay [1] was 7.23; in assay [2] it was 7.27; in assay [3], 6.33; in assay [4] it was 6.51.

`Cc1ncc(C(=O)Nc2ccc(F)c(-n3cc4cc(C(C)C)cnc4n3)c2)o1` [Compound 83, N-{4-fluoro-3-[5-(propan-2-yl)-2H-pyrazolo[3,4-b]pyridin-2-yl]phenyl}-2-methyl-1,3-oxazole-5-carboxamide]: the pEC50 was 8.14 in assay [1], > 7.64 in assay [2], 7.85 in assay [3] and 8.15 in assay [4].

Regarding `CC(C)c1cnc2nn(-c3cc(NC(=O)c4ccc(C#N)cn4)ccc3F)cc2c1` [Compound 84, 5-cyano-N-{4-fluoro-3-[5-(propan-2-yl)-2H-pyrazolo[3,4-b]pyridin-2-yl]phenyl}pyridine-2-carboxamide], the pEC50 in assay [1] was 5.43; in assay [2], 5.69; in assay [3], 5.62; in assay [4], 5.16.

As for `Cc1nc(C(=O)Nc2ccc(F)c(-n3cc4cc(C(C)C)cnc4n3)c2)co1` [Compound 85, N-{4-fluoro-3-[5-(propan-2-yl)-2H-pyrazolo[3,4-b]pyridin-2-yl]phenyl}-2-methyl-1,3-oxazole-4-carboxamide], the pEC50 in assay [1] was 6.82; in assay [2], 6.74; in assay [3], 5.92; in assay [4], 6.12.

For the compound `CC(C)c1cnc2nn(-c3cc(NC(=O)c4nc(Cl)ccc4F)ccc3F)cc2c1` [Compound 86, 6-chloro-3-fluoro-N-{4-fluoro-3-[5-(propan-2-yl)-2H-pyrazolo[3,4-b]pyridin-2-yl]phenyl}pyridine-2-carboxamide], the negative logarithm of the EC50 (pEC50) in assay [1] is 7.85; in assay [2], > 7.64; in assay [3], 6.89; in assay [4], 6.92.

As to `CC(C)c1cnc2nn(-c3cc(NC(=O)c4cnccn4)ccc3F)cc2c1` [Compound 87, N-(4-fluoro-3-(5-isopropyl-2H-pyrazolo[3,4-b]pyridin-2-yl)phenyl)pyrazine-2-carboxamide], the pEC50 was 7.80 in assay [1], > 7.64 in assay [2], 7.21 in assay [3] and 7.15 in assay [4].

Consider `CC(C)c1cnc2nn(-c3cc(NC(=O)C4CCCO4)ccc3F)cc2c1` (stereo not shown) [Compound 88, N-{4-fluoro-3-[5-(propan-2-yl)-2H-pyrazolo[3,4-b]pyridin-2-yl]phenyl}oxolane-2-carboxamide], for which the pEC50 in assay [1] was 5.74; in assay [2], 5.82; in assay [3], 5.28; in assay [4], 5.49.

Consider `CC(C)c1cnc2nn(-c3cc(NC(=O)c4cc(Cl)ccc4F)ccc3F)cc2c1` [Compound 89, 5-chloro-2-fluoro-N-{4-fluoro-3-[5-(propan-2-yl)-2H-pyrazolo[3,4-b]pyridin-2-yl]phenyl}benzamide], for which the negative logarithm of the EC50 (pEC50) in assay [1] is 7.49; in assay [2], 7.48; in assay [3], 6.33; in assay [4], 6.57.

Consider `CC(C)c1cnc2nn(-c3cc(NC(=O)C4CC4)ccc3F)cc2c1` [Compound 90, N-{4-fluoro-3-[5-(propan-2-yl)-2H-pyrazolo[3,4-b]pyridin-2-yl]phenyl}cyclopropanecarboxamide], for which the pEC50 is 6.85 in assay [1], 7.11 in assay [2], 6.55 in assay [3] and 6.51 in assay [4].

`O=C(Nc1ccc(F)c(-n2cc3cc(C4CC4)cnc3n2)c1)N1CCC1` [Compound 91, N-(3-{5-cyclopropyl-2H-pyrazolo[3,4-b]pyridin-2-yl}-4-fluorophenyl)azetidine-1-carboxamide]: the negative-log EC50 (pEC50) is 8.39 in assay [1], > 7.64 in assay [2], 8.06 in assay [3] and 8.07 in assay [4].

Take `O=C(Nc1ccc(F)c(-n2cc3cc(C4CCC4)cnc3n2)c1)N1CCC1` [Compound 93, N-(3-{5-cyclobutyl-2H-pyrazolo[3,4-b]pyridin-2-yl}-4-fluorophenyl)azetidine-1-carboxamide]: the pEC50 was 8.15 in assay [1], > 7.64 in assay [2], 7.47 in assay [3] and 7.49 in assay [4].

With `CC(C)(C)Cc1cnc2nn(-c3cc(NC(=O)N4CCC4)ccc3F)cc2c1` [Compound 94, N-{3-[5-(2,2-dimethylpropyl)-2H-pyrazolo[3,4-b]pyridin-2-yl]-4-fluorophenyl}azetidine-1-carboxamide], the pEC50 in assay [1] was 8.74; in assay [2] it was > 7.64; in assay [3], 7.92; in assay [4] it was 8.09.

For the compound `CCCC(C)c1cnc2nn(-c3cc(NC(=O)N4CCC4)ccc3F)cc2c1` (stereo not shown) [Compound 95, N-{4-fluoro-3-[5-(pentan-2-yl)-2H-pyrazolo[3,4-b]pyridin-2-yl]phenyl}azetidine-1-carboxamide], the pEC50 was 6.77 in assay [1], 7.07 in assay [2], 6.38 in assay [3] and 6.46 in assay [4].

Consider `CCC(C)c1cnc2nn(-c3cc(NC(=O)N4CCC4)ccc3F)cc2c1` (stereo not shown) [Compound 96, N-{3-[5-(butan-2-yl)-2H-pyrazolo[3,4-b]pyridin-2-yl]-4-fluorophenyl}azetidine-1-carboxamide], for which the pEC50 in assay [1] is 7.74; in assay [2], > 7.64; in assay [3], 7.64; in assay [4] it was 7.68.

In the case of `O=C(Nc1ccc(F)c(-n2cc3cc(CC4CCC4)cnc3n2)c1)N1CCC1` [Compound 97, N-{3-[5-(cyclobutylmethyl)-2H-pyrazolo[3,4-b]pyridin-2-yl]-4-fluorophenyl}azetidine-1-carboxamide], the negative-log EC50 (pEC50) in assay [1] is 8.06; in assay [2] it was > 7.64; in assay [3], 7.92; in assay [4], 6.36.

On to `CC(C)CCc1cnc2nn(-c3cc(NC(=O)N4CCC4)ccc3F)cc2c1` [Compound 98, N-{4-fluoro-3-[5-(3-methylbutyl)-2H-pyrazolo[3,4-b]pyridin-2-yl]phenyl}azetidine-1-carboxamide], for which the pEC50 is 7.82 in assay [1], > 7.64 in assay [2], 7.60 in assay [3] and 7.64 in assay [4].

Values taken from patent publication US11384078B2, “5,6-fused-bicyclic compounds and compositions for the treatment of parasitic diseases” (NOVARTIS AG, priority 2017, dated 2022).
